Measurements reported in ChEMBL document CHEMBL4052744, “Diverse heterocyclic scaffolds as dCTP pyrophosphatase 1 inhibitors. Part 1: Triazoles, triazolopyrimidines, triazinoindoles, quinoline hydrazones and arylpiperazines” (Bioorg Med Chem Lett, 2017).
pIC50: −log10 of the molar value.

molecular target: T1, dCTP pyrophosphatase 1 (Homo sapiens, UniProt Q9H773); test: Inhibition of human dCTPase 1
T1 sequence (Q9H773 whole entry): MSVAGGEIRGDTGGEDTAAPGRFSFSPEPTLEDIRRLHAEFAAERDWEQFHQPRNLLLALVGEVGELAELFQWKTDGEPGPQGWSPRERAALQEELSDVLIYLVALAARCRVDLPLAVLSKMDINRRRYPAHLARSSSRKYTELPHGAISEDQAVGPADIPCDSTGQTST

Row | pIC50 | Compound
1 | 5.82 | CCNc1cc(N2CCN(C(=O)c3ccc(OC)cc3)CC2)ccc1[N+](=O)[O-]
2 | 6.04 | CCNc1cc(N2CCN(C(=O)c3ccc(CC)cc3)CC2)ccc1[N+](=O)[O-]
3 | 6.03 | CCn1c2ccccc2c2nnc(SCCN3CCCCC3)nc21
4 | 5.49 | CS(=O)(=O)N1CCN(c2cnn(-c3ccccc3)c(=O)c2Cl)CC1
5 | 6.01 | O=C(c1ccco1)N1CCN(c2nc3ccccc3n3cnnc23)CC1
6 | 5.96 | CCc1c(C)nc(N2CCN(c3ccc(OC)cc3)CC2)nc1O
7 | 6.09 | CCNc1cc(N2CCN(C(=O)c3ccccc3C)CC2)ccc1[N+](=O)[O-]
8 | 5.96 | CC(C)(C)c1cc(=O)[nH]c(N2CCN(Cc3ccc4c(c3)OCO4)CC2)n1
9 | 6.26 | COc1ccc2c(c1)c1nnc(SCCN3CCOCC3)nc1n2C
10 | 5.92 | CCOc1ccc(C(=O)N2CCN(c3cnn(-c4ccccc4)c(=O)c3Cl)CC2)cc1
11 | 5.85 | CCc1c(C)nc(N2CCN(c3cccc(OC)c3)CC2)nc1O
12 | 5.72 | Cn1c2ccccc2c2nnc(SCCN3CCCCC3)nc21
13 | 5.96 | O=C(c1ccccc1Cl)N1CCN(c2ccc([N+](=O)[O-])c(NC3CC3)c2)CC1
14 | 6.18 | COc1ccccc1C(=O)N1CCN(c2cnn(-c3ccccc3)c(=O)c2Cl)CC1
